Measurements reported in US7195901B1 (priority 2004, dated 2007).

System: yeast endogenous DGAT
Format: biochemical, S. cerevisiae
Details: 1 mM diricinolein; yeast grown under repression (2% glucose) condition

1,2-diricinolein was tested, and the “absolute incorporation of 14C-oleate into RRO” value was “less than 20 pmol/mg/min”.
